{
  "source": "patent US7413729B2",
  "about": "“Sialic acid permease system” (priority 2005, dated 2008)",
  "key": {"[1]": {"system": "nontypeable Haemophilus influenzae", "conditions": "sialic acid 10 uM in plates, inhibitor 0.01-10 μM", "experimental": "Assay: Sialic acid 10 uM was incorporated into Brain Heart Infusion plates containing NAD and Hemin. The inhibitor was also added at 0.01 μM, 0.1 μM, 1 μM and 10 μM concentrations. Control plates were simultaneously prepared which lacked inhibitor. Results obtained from these plates represented the 100% sialic acid incorporation The inhibition assay was performed by plating 10^7 nontypeable Haemophilus influenzae onto each plate and allowed them to grow overnight in 5% CO2 at 37° C. After 16 hours, organisms were collected from the plate and separately diluted in distilled water to a density of 0.1 absorbance at 600 nm.\nAnalysis: These organisms were analyzed for sialic acid incorporation onto the surface of the organism. To accomplish this, one hundred microliters was placed in a microtiter well and allowed to dry overnight in a 37° C. dry incubator. The next day the plates were washed in a microtiter washer and 100 microliters of antibody 3F11 in TBS Tween-20 was placed in each well. Monoclonal antibody 3F11 binds the lactosamine epitope to which the sialic acid is attached. If sialic acid is present, 3F11 will not bind. If sialic acid is absent, 3F11 binds. The plates were then allowed to set at 37° C. in a moist chamber for two hours. The plates were washed and 100 microliters of a mouse anti-IgM phosphatase conjugate was added to each well. The plates was allowed to set in a 37° C. incubator for one hour. The plate was washed, and 100 microliters p-nitrophenol-phosphate was added to each well. The plate was allowed to set for 1 hour and the color reaction was read in a microtiter plate reader at an absorbance of 405 nm."}, "[2]": {"system": "influenza A neuraminidase", "conditions": "literature statement; cited from earlier work"}, "H. influenzae [3]": {"system": "H. influenzae", "test": "Inhibition of sialylation of LOS", "assay_type": "cell-based", "conditions": "found by the inventors"}, "SiaP [4]": {"biological_target": "T1, SiaP (Haemophilus influenzae, UniProt P44542)", "T1 construct": "made in house; host or cells: E. coli (PET15 vector)", "T1 sequence (P44542 24-329)": "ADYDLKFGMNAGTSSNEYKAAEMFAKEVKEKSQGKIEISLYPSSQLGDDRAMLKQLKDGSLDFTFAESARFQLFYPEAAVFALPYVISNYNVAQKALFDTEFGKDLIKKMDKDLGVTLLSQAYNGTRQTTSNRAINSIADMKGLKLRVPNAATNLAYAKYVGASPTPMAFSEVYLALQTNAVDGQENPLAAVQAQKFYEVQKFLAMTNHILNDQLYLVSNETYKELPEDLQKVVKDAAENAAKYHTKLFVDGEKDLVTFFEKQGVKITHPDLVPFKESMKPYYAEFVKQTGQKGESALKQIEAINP", "test": "Biacore surface plasmon resonance, sialic acid binding to SiaP on CM5 sensor chip", "parameters": "species or system H. influenzae", "conditions": "for evidence of binding to SiaP: concentrations as high as 100 mM", "protocol": "Biacore® Analysis: Surface plasmon resonance analysis was performed to measure the affinity of binding of sialic acid to SiaP. These studies were performed on a Biacore® instrument using the CM5 sensor chip. SiaP was bound to the chip and increasing concentrations of sialic acid were introduced into the instrument. […] Increasing concentration of sialic acid up to 50 mM show minimal increase in binding. Based on the calculations from this analysis, an association constant of 1.7×10^7 M was calculated."}, "siaT": {"biological_target": "siaT (Haemophilus influenzae, UniProt P44542)", "sequence (P44542 24-329)": "as above", "test": "Biacore analysis of Neu5Ac binding to siaT", "parameters": "species or system H. influenzae", "conditions": "for binding to siaT: concentrations as high as 200 mM; for binding to siaP (summary statement): restates the Example 3 binding studies", "source_text": "In one embodiment, one can use the Biacore® screening method for molecules that bind to SiaT. Briefly, one uses a Biacore® instrument to measure bimolecular binding, establish a high throughput system to search for molecules which bind to SiaT or SiaP. SiaT expressing a His tag is bound to a sensor NTA chip in the Biacore® instrument. The Biacore® instrument measures binding events on the sensor chip surface, so that the interactant attached to the surface determines the specificity of the analysis. Testing the specificity of an interaction involves simply asking whether different molecules can bind to the immobilized interactant. Binding gives an immediate change in the SPR signal, so that it is directly apparent whether an interaction takes place or not. As sample is passed over the sensor surface, the progress of binding directly reflects the rate at which the interaction occurs. Injection of sample is followed by buffer flow during which the response reflects the rate of dissociation of the complex on the surface. Kinetic rate constants for the binding and dissociation can be obtained by fitting the results to mathematical descriptions of interaction models. Binding affinities can be obtained either from rate constant measurements (the dissociation constant KD is the ratio of the rate constants kd/ka for a 1:1 interaction) or by measuring the steady state level of binding as a function of sample concentration. The rate of binding of an interactant to a given surface is a function of the interactant concentration, so that measurements with the Biacore® instrument can be used to determine concentration of a specific substance in pure solution or in complex mixtures. The selectivity, dynamic range and other assay performance characteristics are determined largely by the choice of binding molecule attached to the surface. Thus, one can rapidly screen large number of candidate molecules for binding to the SiaT and develop information about rate of binding and dissociation constants. Molecules that have a high binding affinity and dissociate poorly are examined as candidates for study of inhibition of ^3H-sialic acid uptake by nontypeable H. influenzae.\nThe inventors performed Biacore® analysis of Neu5Ac binding to siaT (FIG. 19). […] Binding peaked at 22 mM and calculations estimated the kD of siaT for Neu5Ac to be 1.7×10^−8."}, "SiaP [5]": {"biological_target": "T1, SiaP", "test": "Binding of 3H-labelled sialic acid to SiaP-Sepharose conjugate", "parameters": "species or system H. influenzae", "conditions": "LuxS-Sepharose and Sepharose-only controls", "protocol": "SiaP binds sialic acid. SiaP was overexpressed in a PET15 vector and purified to homogeneity from E. coli. It was then crosslinked to Sepharose® beads and the ability of the SiaP-Sepharose® conjugate to bind sialic acid was assessed using ^3H-labelled sialic acid. […] Non-specific binding was not observed in this system as evidenced by the LuxS-Sepharose® and Sepharose®-only controls (FIG. 26)."}, "SiaP [6]": {"biological_target": "T1, SiaP", "test": "Isothermal titration calorimetry of SiaP with sialic acid", "assay_type": "binding, H. influenzae", "conditions": "ITC", "protocol": "Calorimetry and Dynamic Light Scattering. Isothermal titration calorimetry (ITC) experiments were performed in order to determine the binding affinity of SiaP for sialic acid. […] Dynamic light scattering (DLS) experiments were performed to determine the hydrodynamic radius of SiaP with and without sialic acid. […] This was verified by two types of experiments. In the first experiment, excess sialic acid was incubated with SiaP for several hours before DLS experiments were performed. In the second, DLS was performed on protein taken from the calorimeter following an ITC experiment."}, "His-tagged siaP": {"biological_target": "His-tagged siaP (Haemophilus influenzae, UniProt P44542)", "sequence (P44542 24-329)": "as above", "test": "Binding of 3H-Neu5Ac to His-tagged siaP bound to a nickel affinity resin", "parameters": "species or system H. influenzae", "conditions": "three experiments; controls His-tagged luxS resin and resin without protein", "source_text": "The inventors also determined whether ^3H-Neu5Ac would bind to His-tagged siaP bound to a nickel affinity resin. […] Two controls are included, the His-tagged luxS protein bound to a nickel affinity resin and nickel affinity with no protein bound to it."}, "H. influenzae [7]": {"system": "H. influenzae", "conditions": "Goon et al. PNAS 100, 3089-3094; cited from earlier work"}},
  "data": [
    {"smiles": "CC(=O)N[C@H]1[C@H]([C@H](O)[C@H](O)CO)O[C@@](Oc2ccc3c(C)cc(=O)oc3c2)(C(=O)[O-])C[C@@H]1O.O.[Na+]", "note": "[2′-(4-Methylumbelliferyl)-α-D-N-acetylneuraminic acid sodium salt hydrate]", "values": [
      {"measurement": "effect on Neu5Ac incorporation into H. influenzae", "setting": "[1]", "result": "did not have any effect"}
    ]},
    {"smiles": "CC(=O)N[C@H]1[C@H]([C@H](O)[C@H](O)CO)OC(O)(C(=O)O)C(F)[C@@H]1O", "note": "(stereo partly drawn) [3-fluorosialic acid, 3-fluoro-N-acetylneuraminic acid]", "values": [
      {"measurement": "inhibition of influenza A neuraminidase", "setting": "[2]", "result": "potent and specific inhibitors"},
      {"measurement": "reduction of sialic acid uptake", "setting": "[1]; NTHi strain 2019, versus no inhibitor", "result": 60, "unit": "%"},
      {"measurement": "inhibition of sialylation of LOS", "setting": "H. influenzae [3]", "result": "highly effective"}
    ]},
    {"smiles": "CC(=O)N[C@H]1[C@H]([C@H](O)[C@H](O)CO)OC(C(=O)O)=C[C@@H]1O", "note": "[DDNA, N-acetyl-2,3-didehydro-2-deoxyneuraminic acid]", "values": [
      {"measurement": "inhibition of influenza A neuraminidase", "setting": "[2]", "result": "potent and specific inhibitors"}
    ]},
    {"smiles": "CC(=O)N[C@H]1C(O)O[C@H](CO)[C@@H](O)[C@@H]1O", "note": "(stereo partly drawn) [N-acetylglucosamine]", "values": [
      {"measurement": "evidence of binding to SiaP", "setting": "SiaP [4]", "result": "no evidence of binding"}
    ]},
    {"smiles": "CC(=O)N[C@@H]1C(O)O[C@H](CO)[C@@H](O)[C@@H]1O", "note": "(stereo partly drawn) [N-acetylmannosamine]", "values": [
      {"measurement": "binding to siaT", "setting": "siaT; Biacore", "result": "no binding"},
      {"measurement": "binding to siaP (summary statement)", "setting": "siaT", "result": "failed to bind"},
      {"measurement": "evidence of binding to SiaP", "setting": "SiaP [4]", "result": "no evidence of binding"}
    ]},
    {"smiles": "CC(=O)N[C@H]1[C@H]([C@H](O)[C@H](O)CO)OC(O)(C(=O)O)C[C@@H]1O", "note": "(stereo partly drawn) [Neu5Ac, N-acetylneuraminic acid]", "values": [
      {"measurement": "Neu5Ac concentration at which binding peaked", "setting": "siaT; Biacore, Neu5Ac 10 to 50 mM", "result": 22, "unit": "mM"},
      {"measurement": "Kd", "setting": "siaT; Biacore, Neu5Ac 10 to 50 mM, estimated by calculation", "result": 17, "unit": "nM"},
      {"measurement": "binding to siaP (summary statement)", "setting": "siaT", "result": "extremely high affinity"},
      {"measurement": "sialic acid concentration up to which association with SiaP increased", "setting": "SiaP [4]; up to 50 mM minimal further increase", "result": 20, "unit": "mM"},
      {"measurement": "binding of sialic acid by SiaP-Sepharose", "setting": "SiaP [5]", "result": "capable of binding sialic acid"},
      {"measurement": "n value calculated from the binding data", "setting": "SiaP [6]", "result": "always less than one"},
      {"measurement": "Kd", "setting": "SiaP [6]; three independent experiments", "result": 130, "unit": "nM"},
      {"measurement": "binding of 3H-Neu5Ac to resin-bound protein", "setting": "His-tagged siaP", "result": "bound only to the resin to which siaT was bound"}
    ]},
    {"smiles": "CC(=O)N[C@H]1[C@H]([C@H](O)[C@H](O)CO)OC(C(=O)O)=C[C@@H]1N=C(N)N", "note": "[Relenza]", "values": [
      {"measurement": "inhibition of influenza A neuraminidase", "setting": "[2]", "result": "potent and specific inhibitors"},
      {"measurement": "effect on Neu5Ac incorporation into H. influenzae", "setting": "[1]", "result": "did not have any effect"}
    ]},
    {"smiles": "CCCCCCCC(=O)N[C@H]1C([C@H](O)[C@H](O)CO)OC(O)(C(=O)O)C[C@H]1O", "note": "(stereo partly drawn) [SiaOct]", "values": [
      {"measurement": "inhibition of LOS sialylation", "setting": "H. influenzae [7]", "result": "inhibitor of LOS sialylation"}
    ]},
    {"smiles": "CCOC(=O)C1=C[C@@H](OC(CC)CC)[C@H](NC(C)=O)[C@@H](N)C1", "note": "[Tamiflu]", "values": [
      {"measurement": "inhibition of influenza A neuraminidase", "setting": "[2]", "result": "potent and specific inhibitors"},
      {"measurement": "effect on Neu5Ac incorporation into H. influenzae", "setting": "[1]", "result": "did not have any effect"}
    ]},
    {"smiles": "O=C(CO)[C@@H](O)[C@H](O)[C@H](O)CO", "note": "[fructose]", "values": [
      {"measurement": "binding to siaT", "setting": "siaT; Biacore", "result": "no binding"}
    ]},
    {"smiles": "C[C@H](O)[C@@H](O)[C@@H](O)[C@H](O)C=O", "note": "[fucose]", "values": [
      {"measurement": "binding to siaP (summary statement)", "setting": "siaT", "result": "failed to bind"}
    ]},
    {"smiles": "O=C[C@H](O)[C@@H](O)[C@@H](O)[C@H](O)CO", "note": "[galactose]", "values": [
      {"measurement": "binding to siaT", "setting": "siaT; Biacore", "result": "no binding"},
      {"measurement": "binding to siaP (summary statement)", "setting": "siaT", "result": "failed to bind"},
      {"measurement": "evidence of binding to SiaP", "setting": "SiaP [4]", "result": "no evidence of binding"}
    ]},
    {"smiles": "N[C@H]1C(O)O[C@H](CO)[C@@H](O)[C@@H]1O", "note": "(stereo partly drawn) [glucosamine]", "values": [
      {"measurement": "evidence of binding to SiaP", "setting": "SiaP [4]", "result": "no evidence of binding"}
    ]},
    {"smiles": "O=C[C@H](O)[C@@H](O)[C@H](O)CO", "note": "[xylose]", "values": [
      {"measurement": "binding to siaT", "setting": "siaT; Biacore", "result": "no binding"},
      {"measurement": "binding to siaP (summary statement)", "setting": "siaT", "result": "failed to bind"}
    ]}
  ]
}
